Patent publication US20240090503A1, “FUNGICIDAL OXADIAZOLES AND THEIR MIXTURES” (FMC CORPORATION, priority 2020, published 2024)
Marks after values point to notes of the source that are not given here.

How the values were obtained:
Type in all cases: in vivo
[1] = tested on: Zymoseptoria tritici (the causal agent of wheat leaf blotch); assay: Test B: preventive spray on wheat seedlings, wheat leaf blotch, visual disease rating; settings: wheat seedlings
Outline: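 This is a preventive test: spray application preceded Zymoseptoria tritici spore inoculation by one day. Test suspensions were in acetone/water with 250 ppm PEG400 surfactant, at the listed ppm rate. After 48 h saturated humidity at 24° C and 17 days at 20° C, visual ratings scored control from 0 to 100%.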

[2] = tested on: Puccinia recondita f. sp. tritici (the causal agent of wheat leaf rust); assay: Test C: preventive spray on wheat seedlings, wheat leaf rust, visual disease rating; settings: wheat seedlings
Outline: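 Wheat seedlings sprayed to run-off with compound in acetone/water (50/50) with 250 ppm PEG400, then inoculated with spores the following day. After 24 h saturated humidity at 20° C. and 6 days in growth chamber at 20° C., disease rated visually as % control relative to untreated controls.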

[3] = tested on: Phakopsora pachyrhizi (the causal agent of Asian soybean rust); assay: Test A: preventive spray on soybean seedlings, Asian soybean rust, visual disease rating; settings: soybean seedlings
Outline: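 Compound in acetone/water (50/50) with 250 ppm PEG400 sprayed to run-off on soybean seedlings; inoculated next day with Phakopsora pachyrhizi spores. Held 24 h at 22° C in saturated atmosphere, then 8 days in a 22° C growth chamber before visual rating as % disease control relative to controls.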

[4] = test suspension 10 ppm, 100 = 100% disease control, 0 = no control
[5] = 250 ppm test suspension, 100 = 100% disease control
[6] = 10 ppm test suspension, 100 = 100% disease control, 0 = no control
[7] = 50 ppm test suspension, 100 = 100% disease control, 0 = no control

SMILES: O=C1COCCN1Cc1ccc(-c2noc(C(F)(F)F)n2)cc1 [compound 372]
- Test B disease control rating ([1]; test suspension 250 ppm): 99* %
- Test C disease control rating ([2]; test suspension 250 ppm): 100%
- Test A disease control rating ([3]; test suspension 250 ppm): 100%

SMILES: COC(=O)c1ccc(COc2ccc(-c3noc(C(F)(F)F)n3)cc2)s1 [compound 317]
- Test B disease control rating ([1]; test suspension 250 ppm): 54* %
- Test C disease control rating ([2]; test suspension 10 ppm): 0%
- Test A disease control rating [3, 4]: 0%

SMILES: COC(=O)c1ccc(CCn2cc(-c3noc(C(F)(F)F)n3)cn2)cc1 [compound 310]
- Test B disease control rating ([1]; test suspension 250 ppm): 0* %
- Test C disease control rating ([2]; test suspension 50 ppm): 0%
- Test A disease control rating ([3]; test suspension 50 ppm): 0%

SMILES: CCNC(=O)c1csc(Cc2ccc(-c3noc(C(F)(F)F)n3)cc2)n1 [compound 488]
- Test B disease control rating [1, 5]: 99* %
- Test C disease control rating [2, 6]: 100%
- Test A disease control rating [3, 6]: 100%

SMILES: CCOC(=O)c1coc(Cc2ccc(-c3noc(C(F)(F)F)n3)cc2)n1 [compound 252]
- Test B disease control rating ([1]; test suspension 250 ppm): 92* %
- Test C disease control rating ([2]; test suspension 10 ppm): 84%
- Test A disease control rating [3, 4]: 100%

SMILES: O=c1cnc2ccccc2n1Cc1ccc(-c2noc(C(F)(F)F)n2)cc1 [Compound 158, 1-[[4-[5-(trifluoromethyl)-1,2,4-oxadiazol-3-yl]phenyl]methyl]-2(1H)-quinoxalinone]
- pest or weed control at 270 µg/mL ([1]; Zymoseptoria tritici, 456 h, test suspension 270 ppm): 90%
- pest or weed control at 270 µg/mL ([2]; Puccinia recondita, 168 h, test suspension 270 ppm): 100%
- pest or weed control at 270 µg/mL ([3]; Phakopsora pachyrhizi, 216 h, test suspension 270 ppm): 100%

SMILES: C=CCOC(=O)c1coc(Cc2ccc(-c3noc(C(F)(F)F)n3)cc2)n1 [compound 334]
- Test B disease control rating ([1]; test suspension 250 ppm): 92* %
- Test C disease control rating ([2]; test suspension 10 ppm): 86%
- Test A disease control rating [3, 4]: 99%

SMILES: CCOC(=O)c1csc(Cc2ccc(-c3noc(C(F)(F)F)n3)s2)n1 [compound 201]
- Test B disease control rating ([1]; test suspension 250 ppm): 28%
- Test C disease control rating ([2]; test suspension 250 ppm): 100%
- Test A disease control rating ([3]; test suspension 250 ppm): 100%

SMILES: CC1(C)OCC(COC(=O)c2cnn(Cc3ccc(-c4noc(C(F)(F)F)n4)cc3)c2)O1 (stereo not drawn) [compound 496]
- Test B disease control rating [1, 5]: 48* %
- Test C disease control rating [2, 6]: 0%
- Test A disease control rating [3, 6]: 100%

SMILES: CCOC(=O)c1cnn(Cc2ccc(-c3noc(C(F)(F)F)n3)s2)c1 [compound 70]
- Test B disease control rating ([1]; test suspension 255 ppm): 96%
- Test C disease control rating ([2]; test suspension 255 ppm): 100%
- Test A disease control rating ([3]; test suspension 255 ppm): 100%

SMILES: O=C(NCCC(F)(F)F)c1coc(COc2ccc(-c3noc(C(F)(F)F)n3)cc2)n1 [compound 467]
- Test B disease control rating [1, 5]: 6* %
- Test C disease control rating [2, 6]: 68%
- Test A disease control rating [3, 6]: 97%

SMILES: FC(F)(F)c1nc(-c2ccc(OCc3cn4ccccc4n3)cc2)no1 [compound 313]
- Test B disease control rating ([1]; test suspension 250 ppm): 14* %
- Test C disease control rating ([2]; test suspension 10 ppm): 0%
- Test A disease control rating [3, 4]: 77%

SMILES: O=C(NCC(F)(F)F)c1coc(Cc2ccc(-c3noc(C(F)(F)F)n3)cc2)c1 [compound 291]
- Test B disease control rating ([1]; test suspension 250 ppm): 13* %
- Test C disease control rating ([2]; test suspension 10 ppm): 97%
- Test A disease control rating [3, 4]: 100%

SMILES: CCOC(=O)c1cnn(Cn2nc(-c3noc(C(F)(F)F)n3)ccc2=O)c1 [compound 346]
- Test B disease control rating ([1]; test suspension 250 ppm): 0* %
- Test C disease control rating ([2]; test suspension 10 ppm): 0%
- Test A disease control rating [3, 4]: 0%

SMILES: FC(F)(F)c1nc(-c2ccc(Cn3ncc4cc(Br)ccc43)cc2)no1 [compound 128]
- Test B disease control rating ([1]; test suspension 255 ppm): 19%
- Test C disease control rating ([2]; test suspension 255 ppm): 100%
- Test A disease control rating ([3]; test suspension 255 ppm): 100%

SMILES: O=S1(=O)CCCCN1Cc1ccc(-c2noc(C(F)(F)F)n2)s1 [compound 323]
- Test B disease control rating ([1]; test suspension 250 ppm): 92* %
- Test C disease control rating ([2]; test suspension 250 ppm): 100%
- Test A disease control rating ([3]; test suspension 250 ppm): 100%

SMILES: CCNC(=O)c1coc(Cc2ccc(-c3noc(C(F)(F)F)n3)cc2)n1 [compound 280]
- Test B disease control rating ([1]; test suspension 250 ppm): 99* %
- Test C disease control rating ([2]; test suspension 10 ppm): 99%
- Test A disease control rating [3, 4]: 100%

SMILES: COCCNC(=O)c1coc(Cc2ccc(-c3noc(C(F)(F)F)n3)cc2)c1 [compound 292]
- Test B disease control rating ([1]; test suspension 250 ppm): 96* %
- Test C disease control rating ([2]; test suspension 10 ppm): 85%
- Test A disease control rating [3, 4]: 100%

SMILES: FC(F)(F)c1nc(-c2ccc(Cn3ccc(-c4ccccc4Cl)n3)cc2)no1 [compound 142]
- Test B disease control rating ([1]; test suspension 250 ppm): 57%
- Test C disease control rating ([2]; test suspension 250 ppm): 100%
- Test A disease control rating ([3]; test suspension 250 ppm): 100%

SMILES: COC(=O)c1coc(COc2ccc(-c3noc(C(F)(F)F)n3)cc2)n1 [Compound 403, methyl 2-[[4-[5-(trifluoromethyl)-1,2,4-oxadiazol-3-yl]¬phenoxy]¬methyl]oxazole-4-carboxylate]
- Test B disease control rating [1, 5]: 47* %
- Test C disease control rating [2, 6]: 0%
- Test A disease control rating [3, 6]: 60%

SMILES: FC(F)(F)c1cc(C(F)(F)F)n(Cc2ccc(-c3noc(C(F)(F)F)n3)cc2)n1 [compound 144]
- Test B disease control rating ([1]; test suspension 250 ppm): 0%
- Test C disease control rating ([2]; test suspension 250 ppm): 0%
- Test A disease control rating ([3]; test suspension 250 ppm): 36%

SMILES: CCOC(=O)c1cnn(Cn2cc(-c3noc(C(F)(F)F)n3)cn2)c1 [compound 305]
- Test B disease control rating ([1]; test suspension 250 ppm): 0* %
- Test C disease control rating ([2]; test suspension 50 ppm): 0%
- Test A disease control rating ([3]; test suspension 50 ppm): 44%

SMILES: O=S1(=O)CCCCN1Cc1ccc(-c2noc(C(F)(F)F)n2)cc1 [compound 321]
- Test B disease control rating ([1]; test suspension 250 ppm): 99* %
- Test C disease control rating ([2]; test suspension 250 ppm): 100%
- Test A disease control rating ([3]; test suspension 250 ppm): 100%

SMILES: O=C(NCC(F)(F)C(F)(F)F)c1coc(Cc2ccc(-c3noc(C(F)(F)F)n3)cc2)n1 [compound 328]
- Test B disease control rating ([1]; test suspension 250 ppm): 0* %
- Test C disease control rating ([2]; test suspension 10 ppm): 100%
- Test A disease control rating [3, 4]: 100%

SMILES: CCOC(=O)c1cnn(Cc2ccc(-c3noc(C(F)(F)F)n3)cc2)c1 [Compound 83, ethyl 1-[[4-[5-(trifluoromethyl)-1,2,4-oxadiazol-3-yl]phenyl]methyl]-1H-pyrazole-4-carboxylate]
- pest or weed control at 250 µg/mL ([1]; Zymoseptoria tritici, 456 h, test suspension 250 ppm): 79%
- pest or weed control at 250 µg/mL ([2]; Puccinia recondita, 168 h, test suspension 250 ppm): 100%
- pest or weed control at 250 µg/mL ([3]; Phakopsora pachyrhizi, 216 h, test suspension 250 ppm): 100%

SMILES: FC(F)(F)c1nc(-c2ccc(Cn3ccc(-c4ccccc4)n3)cc2)no1 [Compound 85]
- Test B disease control rating ([1]; test suspension 250 ppm): 9%
- Test C disease control rating ([2]; test suspension 250 ppm): 100%
- Test A disease control rating ([3]; test suspension 50 ppm): 100*** %

SMILES: COC(=O)c1ccc(COc2ccc(-c3noc(C(F)(F)F)n3)cc2)cc1 [compound 354]
- Test B disease control rating ([1]; test suspension 250 ppm): 20* %
- Test C disease control rating ([2]; test suspension 10 ppm): 0%
- Test A disease control rating [3, 4]: 0%

SMILES: C=CCOC(=O)c1cnn(CCCc2ccc(-c3noc(C(F)(F)F)n3)cc2)c1 [compound 373]
- Test B disease control rating ([1]; test suspension 250 ppm): 99* %
- Test C disease control rating ([2]; test suspension 250 ppm): 100%
- Test A disease control rating ([3]; test suspension 250 ppm): 100%

SMILES: COC(=O)c1coc(Cc2ccc(-c3noc(C(F)(F)F)n3)cc2)c1 [compound 456]
- Test B disease control rating [1, 5]: 65* %
- Test C disease control rating [2, 6]: 68%
- Test A disease control rating [3, 6]: 100%

SMILES: CCOC(=O)c1csc(Cc2ccc(-c3noc(C(F)(F)F)n3)cc2)n1 [compound 344]
- Test B disease control rating ([1]; test suspension 250 ppm): 96* %
- Test C disease control rating ([2]; test suspension 10 ppm): 93%
- Test A disease control rating [3, 4]: 100%

SMILES: O=C1CCCN1Cc1ccc(-c2noc(C(F)(F)F)n2)cc1 [compound 371]
- Test B disease control rating ([1]; test suspension 250 ppm): 95* %
- Test C disease control rating ([2]; test suspension 250 ppm): 100%
- Test A disease control rating ([3]; test suspension 250 ppm): 100%

SMILES: CC(C)(C#N)NC(=O)c1coc(Cc2ccc(-c3noc(C(F)(F)F)n3)cc2)n1 [compound 230]
- Test B disease control rating ([1]; test suspension 250 ppm): 99* %
- Test C disease control rating ([2]; test suspension 10 ppm): 99%
- Test A disease control rating [3, 4]: 100%

SMILES: CCOC(=O)c1cnn(CN2CCC(c3noc(C(F)(F)F)n3)CC2)c1 [compound 458]
- Test B disease control rating [1, 5]: 0* %
- Test C disease control rating [2, 7]: 0%
- Test A disease control rating [3, 7]: 0%
